We go through six molecules from patent US12605541B2, “Stabilized anti-cancer cold atmospheric plasma (CAP)-stimulated media and methods for preparing and using same” (The George Washington University, priority 2015, dated 2026).

Read-outs that look alike come from different tables or passages of the source.

The conditions of data set [1]: for effect of the component on H2O2 in CAP-stimulated PBS during storage: at 8° C. (FIG. 3a) (so in the source); for effect of the appearance of the component in DMEM on H2O2 during storage: 3 days of storage at −25° C., FIG. 5d; for effect of the presence of the component in DMEM on H202 in PSM during storage: three days of storage at 8° C., FIG. 3b. As to the method: The general research strategy described herein is illustrated in FIG. 1b. I mL of PSM was made by the vertical irradiation on the medium in a well on a 12-well plate. Then, the PSM was transferred to a 1.5 mL centrifuge tube by pipette. The centrifuge tubes were stored in refrigerators with different internal temperatures (8° C. and −25° C.) for 3 days. Additionally, some centrifuge tubes were stored at 22° C., for the investigation of PSM degradation at room temperature. Ultimately, the PSM was either transferred to culture the seeded cancer cells in a 96-well plate or transferred into a black wall 96-well plate to measure for H2O2 concentration. Because PBS is not suitable for cell culture, the protocols used to transfer the CAP-stimulated PBS are slightly different from those used to transfer the CAP-stimulated DMEM.
The protocols to prepare PSM are the same among different experiments. 1 mL of PBS or DMEM (or modified DMEM, such as cysteine/methionine-free DMEM) in a well on a Coming™ Falcon™ 12-well plate was treated by CAP for 1 or 2 minutes. The gap between the end of dielectric plasma tube and the bottom of 12-well plate was 3 cm.
H2O2 containing PBS and H2O2 containing DMEM were prepared by adding 30 wt¾ H2O2 solution to PBS and DMEM, respectively.
The amino acid(s) containing PBS, calcium containing PBS, magnesium containing PBS, glucose containing PBS, phenol red containing PBS, and amino acid(s) containing DMEM were prepared by adding and dissolving specific amino acid(s), calcium chloride solution, magnesium chloride solution, D-glucose, phenol red solution or an amino acid derivative (such as 3-nitro-L-tyrosine) in PBS and DMEM, respectively. With the exception of PBS and DMEM, the added components were purchased from Sigma Aldrich.
50 μL of CAP-stimulated medium or PBS to be analyzed for H2O2 concentration was transferred to a well on a black-wall Coming™ Falcon™ 96-well clear bottom plate in triplicate. Subsequently, according to standard protocols provided by Sigma Aldrich (St. Louis, MO), the H2O2 concentration in the cold plasma-stimulated medium was measured as follows. First, 50 μL of red peroxidase substrate stock solution, 200 μL of peroxidase stock solution, and 4.75 ml of assay buffer were mixed to prepare H2O2 probe solution. 50 μL of probe solution was then added in the black 96-well plate and mixed with 50 μL of the CAP-stimulated medium or PBS. After 30 min of storage at the room temperature, with protecting from light, a Hybrid Technology HI microplate reader (BioTek Instruments, Winooski, VT) was used to measure the fluorescence with an excitation wavelength at 540 nm and an emission wavelength at 590 nm. The final measured fluorescent strength of the experimental group was obtained by deducting the measured fluorescence of the control group from the measured fluorescence of the experimental group. The standard H202 solution was used to prepare the standard H202 concentration-fluorescence curve. Based on this standard curve, we obtained the H202 concentration in CAP-stimulated medium or PBS. The triplicate experiments were independently repeated for three times

Data set [2] relates to MDA-MB-231 cells. Briefly: MTT cell viability of breast cancer cells cultured in CAP-stimulated media. The class given is cell-based, human. To be noted: CAP treatment time 2 minutes, storage at −25° C. for 3 days, FIG. 5e.
Method: All DMEM and PBS were mixed with 1% (v/v) antibiotic (penicillin and streptomycin) (Thermo Fisher Scientific) before any experiments were performed. […] All cancer cell lines were seeded with a confluence of 3×10^4 cells/mL and a volume of 100 μL in each well on a 96-well plate and were cultured for 6 hours in a complete media composed of Dulbecco's modified Eagle's medium supplemented with 10% (v/v) fetal bovine serum (Thermo Fisher Scientific). and 1% (v/v) antibiotic (penicillin and streptomycin) solution under standard cell culture conditions (a humidified, 37° C., 5% CO2 environment). In each experiment, 6 wells in a single column on the 96-well plate were seeded with cancer cells.
First, the initial culture medium which had been cultured cells for 6 hours was removed before this step. […] In each experiment, 6 wells in a single column on the 96-well plate were seeded with cancer cells. […]
The cancer cells in the 96-well plates were cultured in the 96-well plate under standard cell culture conditions (a humidified, 37° C., 5% CO2 environment) for 3 days. […] The 96-well plate filled with hydrochloric acid containing isopropanol solution was then read by a Hybrid Technology HI microplate reader (BioTek Instruments, Winooski, VT) at a 570 nm of absorbance. […] The average value of measured cell viability from 6 wells was regarded as the cell viability measured from one independent experiment. […]

On to `N[C@@H](Cc1c[nH]c2ccccc12)C(=O)O` [tryptophan], for which, in data set [1], the “effect of the component on H2O2 degradation in CAP-stimulated PBS during freezing storage” value is “aggravate the degradation” and the “effect of the component on H2O2 in CAP-stimulated PBS during storage” value (from here on “effect … in CAP-stimulated PBS during storage”) is reported as “inhibit the degradation”.

Take `N[C@@H](CS)C(=O)O` [cysteine]: in data set [1], the “effect of the component on H2O2 degradation in CAP-stimulated PBS during freezing storage” value is given as “two most reactive components”, the “effect of the component on H202 degradation in CAP-stimulated PBS-based solution” value (“effect … in CAP-stimulated PBS-based solution” below) is on record as “most significant degradation”, the “effect of the appearance of the component in DMEM on H2O2 during storage” value is “complete consumption of H2O2” and the “effect of the presence of the component in DMEM on H202 in PSM during storage” value is “noticeable H202 degradation”. For the same molecule, the “effect of the appearance of the component in DMEM on the anti-cancer capacity of PSM” value in data set [2] is recorded as “significantly aggravates the degradation”.

Consider `CSCC[C@H](N)C(=O)O` [methionine], for which, in data set [1], the “effect of the component on H2O2 degradation in CAP-stimulated PBS during freezing storage” value is “two most reactive components”, the “effect … in CAP-stimulated PBS-based solution” value is on record as “most significant degradation”, the “effect of the appearance of the component in DMEM on H2O2 during storage” value is on record as “complete consumption of H2O2” and the “effect of the presence of the component in DMEM on H202 in PSM during storage” value was “noticeable H202 degradation”. The “effect of the appearance of the component in DMEM on the anti-cancer capacity of PSM” value in data set [2] is listed as “significantly aggravates the degradation”.

On to `NCCCC[C@H](N)C(=O)O` [lysine], for which the “effect … in CAP-stimulated PBS during storage” value in data set [1] is reported as “inhibit the degradation”. Moreover, the “effect of the component on H2O2 degradation in CAP-stimulated PBS during freezing storage” value in data set [1] (storage at −25° C., FIG. 5c) is listed as “aggravate the degradation”.

Turning to `N[C@@H](Cc1ccc(O)cc1)C(=O)O` [tyrosine], the “effect of the component on H2O2 degradation in CAP-stimulated PBS during freezing storage” value in data set [1] is recorded as “aggravate the degradation”.

As to `N[C@@H](Cc1ccccc1)C(=O)O` [phenylalanine], in data set [1], the “effect … in CAP-stimulated PBS-based solution” value was “noticeable degradation” and the “effect … in CAP-stimulated PBS during storage” value is given as “noticeable H2O2 degradation”.
